Measured values reported in patent EP4711377A1, “STEROID COMPOUND, PREPARATION METHOD THEREFOR, AND USE THEREOF” (Shujing Biopharma Co., Ltd, priority 2023, dated 2024).

Tests used:
[1] = system: ICR mice; assay: acute toxicity experiment and side effect observation in mice; assay type: in vivo; conditions: for clinical symptoms / death: 4-8 h post-administration; for cage-side observations / main adverse reactions / tolerability: single oral administration, 2.5 to 20 mg/kg
Method: (§1) This experiment aimed to evaluate the acute toxic manifestations of the test compounds following single oral intragastric administration in ICR mice, observe the recovery status of the ICR mice within 14 days post-administration, and determine the maximum tolerated dose of the test compounds.
(§2) 65 male and 65 female ICR mice were purchased from Shanghai Jihui Laboratory Animal Care Co., Ltd. After 4-5 days of acclimatization of the experimental animals, the formal experiment was carried out. The mice were housed at 5 mice/cage in a 12/12-hour light/dark cycle at a room temperature of 23±2 °C, with free access to food and water.
(§3) Based on the Vehicle in section 2.4, a certain weight of the test compound was weighed, 5% of the total volume of a DMSO liquid was first added, and the mixture was vortexed. After the drug was completely dissolved, 5% of the total volume of an HS-15 liquid was added, and the mixture was well mixed and vortexed. Finally, a 20% hydroxypropyl-β-cyclodextrin solution was added according to the remaining volume proportion, forming a 2 mg/mL clear and homogeneous solution. The solution was then proportionally diluted in a gradient to concentrations of 1 mg/mL, 0.5 mg/mL, and 0.25 mg/mL (the administration volume was 10 mL/kg).
(§4) • a. About 12-18 h before testing, animals were weighed and then grouped, and fasted overnight (water was accessible). • b. The next day, the mice were reweighed according to groups. Ten mice per group (5 males and 5 females/dose) were subjected to oral intragastric administration of the test compound or Vehicle. The day of administration was designated as Day 1. • c. […] Observation period for Day 2 to Day 14: 9:00 to 12:00.
(§5) • (1) The clinical symptoms and mortality in each group of ICR mice post-administration were recorded to determine the maximum tolerated dose. • (2) The symptom alleviation and recovery status in each group of ICR mice post-administration were recorded.

[2] = as above; assay type: in vivo, ICR mice; conditions: both sexes, ICR, mouse, in vivo; single oral intragastric administration at 2.5, 5, 10, 20 mg/kg; 14 days observation; read-out: maximum tolerated dose (MTD)
Method: as §1, §2, §3, §4, §5

[3] = system: C57 mice; assay: forced swimming test in mice; assay type: in vivo; conditions: 3 mg/kg p.o.; for immobility time during minutes 2-6, Mean value: one hour after the administration
Excerpt: (§6) The core manifestations of depression are despair, helplessness, and anhedonia. The forced swimming test is commonly used to evaluate despair-like behavior. In this test, the animal is placed in an unpleasant and inescapable environment (a water tank). […] Anhedonia means a loss of interest in things that were once pleasurable; in rodents, it is typically manifested as a reduced preference for sweet foods (sucrose). Therefore, the in vivo efficacy of the compounds of the examples of the present disclosure in mice can be evaluated by forced swimming and sucrose preference tests.
(§7) Female/male C57 mice, purchased from SPF (Suzhou) Biotechnology Co., Ltd.
(§8) Note: ①Vehicle: 5% of DMSO + 5% of HS-15 + 90% of 20% hydroxypropyl-β-cyclodextrin (10 mL/kg, p.o.).
Forced swimming: Animals were divided into a control group and various test drug administration dose groups, which were subjected to vehicle and test drug administration, respectively. One hour after the administration, the animals were placed in a 25 °C plexiglass cylinder with a water depth of 20 cm. The swimming status of the animals in the water was recorded by video, and the immobility time of the animals (characterized by floating in the water and stopping struggling) during minutes 2-6 was recorded and analyzed.
(§9) Experimental data were expressed as χ ± SEM. One-way analysis of variance was employed, and pairwise comparisons were performed using Dunnett's multiple comparisons tests. The floating immobility time, swimming time, and struggling time were recorded.

[4] = system: C57 mice; assay: sucrose preference test in mice; assay type: in vivo; conditions: 3 mg/kg p.o.; for Sucrose preference degree, Mean value: mice with chronic stress, 2 h free drinking
Excerpt: as §6, §7, §8
Sugar preference: D1: a 1% sucrose solution was provided on both sides; D2/3: drinking water was provided on one side, while a 1% sucrose solution was provided on the other side; D4: water and food were deprived; D5: sucrose preference degree was tested. During the test, the mice with chronic stress were subjected to administration according to the experimental groups. After the administration, pre-weighed sucrose solution and drinking water were provided on […]. The animals were allowed free access to drinking for 2 h in a dark environment, and during this period, the positions of the sucrose solution and drinking water were switched at the 1-hour mark.
as §9
Sucrose preference degree (%) = sucrose solution consumption/(sucrose solution consumption + purified water consumption) × 100%.

[5] = all dose groups (2.5/5/10/20 mg/kg)

**Q.** With `C[C@@H]1C[C@H](C(=O)Cn2ncnn2)[C@@]2(C)CC[C@H]3[C@@H](CC[C@@H]4C[C@](C)(O)[C@@H](C)C[C@@H]43)[C@H]12` [Example 9, 1-((2S,3S,5R,8R,9R,10S,13S,14S,15R,17S)-3-Hydroxy-2,3,13,15-tetramethylhexadecahydro-1H-cyclopenta[a]phenanthren-17-yl)-2-(2H-tetrazol-2-yl)ethan-1-one] as the compound, how does the clinical symptoms ([1]; 20 mpk group) read?
**A.** gait instability

**Q.** And the death [1, 5]?
**A.** no death occurred

**Q.** And the clinical symptoms ([1]; all lower dose groups (below 20 mpk))?
**A.** returned to normal

**Q.** What about the “cage-side observations / main adverse reactions” value [1] of the same compound?
**A.** prostration and mild loss of righting reflex observed in some of the mice at high doses

**Q.** What about the tolerability [1] of the same compound?
**A.** all animals could tolerate it

**Q.** And the MTD at 14 days [2]?
**A.** 20 mg/kg

**Q.** And the “immobility time during minutes 2-6, Mean value” [3]?
**A.** 54.68 s

**Q.** And the “effect on immobility time compared to the blank group” value ([3]; conclusion in words)?
**A.** significantly reduce the immobility time

**Q.** And the “Sucrose preference degree, Mean value” [4]?
**A.** 88.37%

**Q.** And the “effect on sucrose preference degree compared to the blank group” value ([4]; conclusion in words)?
**A.** significantly improve the sucrose preference degree

**Q.** Which mortality ([1]; 20 mg/kg group, single oral intragastric administration) does the source give for `C[C@@]1(O)CC[C@H]2[C@H](CC[C@@H]3[C@@H]2CC[C@]2(C)[C@@H](C(=O)Cn4cc(C#N)cn4)CC[C@@H]32)C1` [Sage-217, reference compound] here?
**A.** mortality was observed in both male and female mice

**Q.** What about the clinical symptoms ([1]; 20 mpk group) of the same compound?
**A.** prostration symptoms

**Q.** What about the death ([1]; 20 mpk group, 5 males and 5 females) of the same compound?
**A.** 1 male and 2 female mice died

**Q.** What about the “cage-side observations / main adverse reactions” value [1] of the same compound?
**A.** ataxia that aggravated with the increase of dose, as well as severe loss of righting reflex observed at high doses

**Q.** What about the MTD at 14 days [2] of the same compound?
**A.** 10 mg/kg

**Q.** What about the “immobility time during minutes 2-6, Mean value” [3] of the same compound?
**A.** 56.38 s

**Q.** And the “Sucrose preference degree, Mean value” [4]?
**A.** 84.31%

**Q.** What does the source list for `C[C@H]1C[C@H]2[C@H](CC[C@@H]3[C@@H]2CC[C@]2(C)[C@@H](C(=O)Cn4ncnn4)CC[C@@H]32)C[C@]1(C)O` [Example 20, 1-((2S,3S,5R,8R,9R,10S,13S,14S,17S)-3-Hydroxy-2,3,13-trimethylhexadecahydro-1H-cyclopenta[a]phenanthren-17-yl)-2-(2H-tetrazol-2-yl)ethan-1-one]?
**A.** death [1, 5]: no death occurred; cage-side observations / main adverse reactions [1]: ataxia that aggravated with the increase of dose; tolerability [1]: all animals could tolerate it; MTD at 14 days [2]: 20 mg/kg
